pKi: −log10 of the molar value.
Columns and labels:
[1] = Catalytic rate constant of the compound; assay type: ADME
[2] = Hydrolysis rate constant of the compound; assay type: ADME
Chymotrypsinogen B [3] = target: T1, Chymotrypsinogen B (Homo sapiens, UniProt P17538); test: Binding constant alpha-chymotrypsin was determined by competitive inhibition assay with Suc-Ala-Ala-Pro-Phe-pNA as substrate
Chymotrypsinogen B [4] = target: T1, Chymotrypsinogen B; test: Binding constant alpha-chymotrypsin was determined by competitive inhibition assay with BTEE as substrate

T1 sequence (P17538 34-164 limits assumed, other chains not shown): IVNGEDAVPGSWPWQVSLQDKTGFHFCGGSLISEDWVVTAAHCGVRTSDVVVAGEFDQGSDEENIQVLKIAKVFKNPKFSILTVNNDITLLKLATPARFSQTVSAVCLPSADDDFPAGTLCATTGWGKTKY
T1 sequence (P17538 167-263 limits assumed, other chains not shown): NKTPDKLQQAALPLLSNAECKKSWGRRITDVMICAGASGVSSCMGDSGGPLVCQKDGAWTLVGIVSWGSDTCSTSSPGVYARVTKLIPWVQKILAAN

Row | SMILES | Kc [1] | Kh [2] | pKi (Chymotrypsinogen B [3]) | pKi (Chymotrypsinogen B [4])
1 | O=C1CC(c2ccccc2)C/C(=C\I)O1 (stereo not drawn) | 0.025 min⁻¹ | 0.0068 min⁻¹ | 8.28 | 
2 | O=C1CCC(c2ccccc2)/C(=C\I)O1 (stereo not drawn) |  | 0.004 min⁻¹ |  | 4.26
3 | O=C1CC(c2ccccc2)/C(=C\I)O1 (stereo not drawn) |  | 0.0021 min⁻¹ |  | 
4 | C=C1CC(c2ccccc2)CC(=O)O1 (stereo not drawn) |  | 0.0015 min⁻¹ |  | 
5 | O=C1C=C(c2ccccc2)/C(=C\I)O1 |  | 0.0015 min⁻¹ |  | 
